Measured values from patent US6599936B1, “Anti-sebum skin care cosmetic compositions containing branched esters” (Unilever Home & Personal Care USA division of Conopco, Inc., priority 1999, dated 2003).
Like-named read-outs stand apart in the source and are kept apart here.

Tests used:
Type in all cases: cell-based
human sebocytes = assay: Sebocyte assay: 14C-acetate label remaining in sebocytes (sebum suppression in vitro); settings: for inhibition at 0.001 %: 0.001% test agent; for inhibition at 0.01 %: 0.01% test agent; for sebum suppression, result in words: conclusion drawn from Tables 1-5
Procedure: Secondary cultures of human sebocytes obtained from an adult […] were grown in 48-well or 96-well tissue culture plates (Costar Corp.; Cambridge, Mass.) until three days post-confluence. Sebocyte growth medium consisted of Clonetics Keratinocyte Basal Medium (KBM) supplemented With 14 μg/ml bovine pituitary extract, 0.4 μ/ml hydrocortisone, 5 μ/ml insulin, 10ng/ml epidermal growth factor, 1.2×10^−10 M cholera toxin, 100 units/ml penicillin, and 100 μg/ml streptomycin. All cultures were incubated at 37° C. in the presence of 7.5% CO2. Medium was changed three times per week.
On the day of experimentation, the growth medium was removed and the sebocytes washed three times with sterile Dulbecco's Modified Eagle Medium (DMEM; phenol red free). Fresh DMEM was added to each sample (triplicates) with 1-5 microliter of test agent solubilized in ethanol. Controls consisted of addition of ethanol alone. Each plate was returned to the incubator for 20 hours followed by the addition of ^14C-acetate buffer (5 mM final concentration, 56 mCi/mmol specific activity). Sebocytes were returned to the incubator for four hours afterwhich each culture was rinsed three times with phosphate buffered saline to remove unbound label. Radioactive label remaining in the sebocytes was harvested and counted using a Beckman scintillation counter. Statistical significance (p value) was calculated using student's t-test. Phenol Red, a known sebum suppressive agent, was employed as a positive control.

[1] = tested on: Neonatal human dermal fibroblasts; assay: Procollagen I production by fibroblasts, slot blot
Procedure: Neonatal human dermal fibroblasts were purchased from Clonetics Corp., San Diego, Calif. All materials for cell culture were purchased from Life Technologies, NY and used in passages 5-10. Cells were seeded at a density of approximately 7,500/well in the inner 48 wells of a 96-well plate in a medium containing DMEM (Dulbecco's Modified Eagle's Medium), high-glucose supplemented with 2 mM L-glutamine, 10% fetal bovine serum, and antibiotic and antimycotic solutions). Cells were then grown to confluence for 2 days. At confluence, the medium was removed and cells were washed with serum-free DMEM, and each well dosed with 200 μl of a solution of a test compound in serum-free DMEM. Each dosing was replicated in the total of six wells. […] After 24 hours, the test compound solution or the control solution was removed and cells redosed with 100 μl of a solution of a test compound in serum-free DMEM. After 24 hours, the test compound solution or the control solution was removed and stored over the weekend at 4° C. with protease inhibitor (Aprotinin from Sigma) in a ratio of aprotinin to water of 1:200. The test compound solution was then diluted in DMEM (approximately 20 μl sample in 200 μl DMEM).
Nitrocellulose membrane and 3 sheets of filter paper were soaked in TRIS buffered saline (TBS, pH 7.3.). BioRad slot blot apparatus (BioRad Labs, CA) was set up with filter paper on bottom, membrane on top, tightened. […] TBS was added per well. Vacuum was used to suck wells through membrane. The diluted test compound solution or control was vortexed, then 100 μl was loaded per well and gravity dried. Procollagen from the test solution was bound to the membrane at this point in the procedure. Membrane was removed from the apparatus, excess cut off, and bottom right corner notched for orientation. The membrane was placed in blocking solution (5% milk powder in Dulbecco's phosphate buffered saline) overnight at 4° C., with shaking. The membrane was then incubated for 1.5 hrs at room temperature with 1.5 mL Rat Anti-Human Procollagen Amino-Terminal Ab (Chemicon MAB1912) in TBS with 0.1% BSA (ratio of antibody to buffer/BSA was 1:100) in a sealed bag with shaking. The membrane was then removed; washed 3 times for 5 minutes in TBS/0.1% Tween. The membrane was then incubated for 1 hour at room temperature in 2 mL of Biotinylated Anti-Rat Peroxidase-Conjugated Ab (Vector Labs) in TBS with 0.1% BSA (ratio of antibody to buffer/BSA was 1:1000) in a sealed bag with shaking.
The membrane was washed 3 times for 5 minutes in TBS/0.1%Tween. 3 mL PBS was incubated with 30 μl each of solutions A and B from Vectastain Kit for 30 minutes. The membrane was placed in the resulting solution for 30 minutes in a sealed bag with shaking. The membrane was then removed and washed twice for 5 minutes in TBS/0.1% Tween. The membrane was then stained using the following solution:
12.5 mg 3-amino 9-ethyl carbazole (Sigma)
3.125 (approximately) mL DMF (N,N-dimethylformamide, from Sigma)
The membrane was stained until color developed and the reaction stopped with 2 washes for 10 minutes in tap water. A transparency of the blot was prepared using a color copier. Blot was scanned on Bio-Rad GS-700 Image Analysis densitometer and volume (OD*mm^2) of color/slot determined using molecular analysis software. Fold increase was calculated as a ratio of densitometer reading for cells treated with a test compound over control.

[2] = tested on: Neonatal human dermal fibroblasts; assay: Glycosaminoglycan synthesis by fibroblasts, Alcian Blue dot blot; settings: Table 7, glycosaminoglycans
Procedure: Neonatal human dermal fibroblasts were seeded at a density of approximately 50,000/well in a 12-well plate in a medium containing DMEM (high glucose supplemented with 2 mM L-glutamine, 10% fetal bovine serum, antibiotic and antimycotic solutions). Cells were then grown to confluence for 2 days. At confluence, each well was rinsed in serum-free DMEM and the cells dosed with test compounds (in triplicate) in 750 μL of serum-free DMEM. After 24 hours, this medium was aspirated and the treatment step repeated. After a second 24-hour period, this medium, containing the soluble GAGs, was collected and frozen until analysis.
A positively-charged Zeta Probe membrane was soaked in sterile water and placed into the Dot-Blot Apparatus (both Bio-Rad Labs, Hercules, Calif.). 100 μL of water was applied to each well and pulled through using a vacuum. After thawing, 100 μL of test solution samples or standards (Hyaluronic acid or Chondroitin Sulfate from bovine trachea, Sigma, St. Louis, Mo.) was applied to the membrane and allowed to gravity filter (about 1.5-2 hours). GAGs were now bound to membrane. The membrane was blocked in 3% w/v fatty acid free bovine serum albumin (Sigma) in water for one hour. A dye solution of 0.5% w/v Alcian Blue dye (ICN Biochemicals, Cleveland, Ohio.) in 3% acetic acid, pH approximately 2.3, was made. The membrane was washed twice in distilled water and then stained in the dye solution on a rotary shaker for 15 minutes. The dye was poured off and the membrane destained twice for 15 minutes each time in 3% acetic acid. The membrane was rinsed in water and left to dry overnight. The blot was scanned on Bio-Rad GS-700 Image Analysis Densitometer and volume (OD*mm^2) of color/slot determined using molecular analyst software. Fold increase over control was calculated as a ratio of densitometer reading for cells treated with a test compound over control.

[3] = Homo sapiens, 20 h, Table 3A, 20 hour incubation, 96 well plate, read-out: % Reduction
[4] = Homo sapiens, 0.5 h, Table 4, 30 minute incubation, 48 well plate, read-out: % Reduction
[5] = Table 6B, positive control, concentration not given
[6] = positive control, concentration not given
[7] = Table 6B, 0.0046% test compound

CCCCCCCCCCCCCC(=O)OC(C)C [Isopropyl Myristate, Isopropyl myristate]
inhibition at 0.001 % (human sebocytes; [3]): -6.3%
inhibition at 0.01 % (human sebocytes; [3]): 4%
sebum suppression, result in words (human sebocytes): not an effective sebum suppressor

CCCCCCCCCCCCCOC(=O)c1ccccc1O [Straight Chain TDS, tridecyl salicylate]
inhibition at 0.01 % (human sebocytes; [4]): 1.3%

CC(C)CCCCCCCCCCOC(=O)c1ccccc1 [Isotridecyl Benzoate]
Average OD Reading ([1]; Table 6B, 0.003% test compound): 2.534
Fold increase over control ([1]; Table 6B, 0.003% test compound): 1.3 fold
Average OD Reading ([1]; Table 6B, 0.030% test compound): 2.669
Fold increase over control ([1]; Table 6B, 0.030% test compound): 1.4 fold
inhibition at 3.9e-05 % (human sebocytes; Homo sapiens, 20 h, Table 5, 0.000039% test agent, 20 hour incubation, 48 well plate, read-out: % Reduction): 36.3%
inhibition at 0.00039 % (human sebocytes; Homo sapiens, 20 h, Table 5, 0.00039% test agent, 20 hour incubation, 48 well plate, read-out: % Reduction): 52.2%
inhibition at 0.0039 % (human sebocytes; Homo sapiens, 20 h, Table 5, 0.0039% test agent, 20 hour incubation, 48 well plate, read-out: % Reduction): 41.8%
Average OD Reading ([2]; 0.003% test compound): 0.22
Fold increase over control ([2]; 0.003% test compound): 0.8 fold
Average OD Reading ([2]; 0.03% test compound): 0.38
Fold increase over control ([2]; 0.03% test compound): 1.5 fold

O=S1(=O)OC(c2ccc(O)cc2)(c2ccc(O)cc2)c2ccccc21 [Phenol Red]
inhibition at 0.001 % (human sebocytes; Homo sapiens, 20 h, Table 1, 20 hour incubation, 48 well plate, read-out: % Reduction): 19.6%
inhibition at 0.001 % (human sebocytes; [3]): 14%
inhibition at 0.01 % (human sebocytes; [3]): 71.2%

TGF-b
Average OD Reading ([1]; Table 6A, test compound 0.01%, densitometer volume (OD*mm^2)): 6.787
Fold increase over control ([1]; Table 6A, test compound 0.01%, ratio of densitometer reading over control): 1.9 fold
Average OD Reading [1, 5]: 4.099
Fold increase over control [1, 5]: 2.1 fold
Average OD Reading [2, 6]: 0.86
Fold increase over control [2, 6]: 3.3 fold

CC(C)CCCCCCCCCCOC(=O)c1ccccc1O [Isotridecyl salicylate]
inhibition at 0.005 % (human sebocytes; Homo sapiens, 0.5 h, Table 4, 0.005% test agent, 30 minute incubation, 48 well plate, read-out: % Reduction): 24.6%
inhibition at 0.01 % (human sebocytes; [4]): 48.9%
sebum suppression, result in words (human sebocytes): effective in suppressing sebum

CCCCC/C=C\C/C=C\CCCCCCCC(=O)OCCCCCCCCCCC(C)C [Isotridecyl Linoleate]
Average OD Reading [1, 7]: 2.346
Fold increase over control [1, 7]: 1.2 fold
Average OD Reading ([1]; Table 6B, 0.046% test compound): 2.4585
Fold increase over control ([1]; Table 6B, 0.046% test compound): 1.3 fold
inhibition at 4.6e-05 % (human sebocytes; Homo sapiens, 20 h, Table 5, 0.000046% test agent, 20 hour incubation, 48 well plate, read-out: % Reduction): 57.3%
inhibition at 0.00046 % (human sebocytes; Homo sapiens, 20 h, Table 5, 0.00046% test agent, 20 hour incubation, 48 well plate, read-out: % Reduction): 50.9%
inhibition at 0.0046 % (human sebocytes; Homo sapiens, 20 h, Table 5, 0.0046% test agent, 20 hour incubation, 48 well plate, read-out: % Reduction): 44.9%
Average OD Reading ([2]; 0.0046% test compound): 0.40
Fold increase over control ([2]; 0.0046% test compound): 1.5 fold
Average OD Reading ([2]; 0.046% test compound): 0.29
Fold increase over control ([2]; 0.046% test compound): 1.1 fold

CCCCCCCCC(=O)OCCCCCCCCCCC(C)C [Isotridecyl Nonanoate]
inhibition at 0.001 % (human sebocytes; Homo sapiens, 20 h, Table 3B, 20 hour incubation, 48 well plate, read-out: % Reduction): 0.7%
inhibition at 0.1 % (human sebocytes; Homo sapiens, 20 h, Table 3B, 0.1% test agent, 20 hour incubation, 48 well plate, read-out: % Reduction): 0.8%
sebum suppression, result in words (human sebocytes): not effective sebum suppressive agents

CCCCCCCCCC(=O)OCCCCCCCCCCC(C)C [Isotridecyl Decanoate]
sebum suppression, result in words (human sebocytes): not effective sebum suppressive agents

CCCC(=O)OCCCCCCCCCCC(C)C [Isotridecyl Butyrate]
inhibition at 0.00027 % (human sebocytes; Homo sapiens, 20 h, Table 3C, 0.00027% test agent, 20 hour incubation, 48 well plate, read-out: % Reduction): 4.1%
inhibition at 0.0027 % (human sebocytes; Homo sapiens, 20 h, Table 3C, 0.0027% test agent, 20 hour incubation, 48 well plate, read-out: % Reduction): 17.2%
sebum suppression, result in words (human sebocytes): not effective sebum suppressive agents
